For data set [1], the species on record is Homo sapiens. The data set is described as follows: Metabolism (NADH oxidation) by recombinant human NAD(P)H: quinone oxidoreductase (NQO1) is evaluated. Format: ADME.
Data set [2] is described as follows: Selectivity ratio against NSCLC H460 and NSCLC H596 was evaluated. It is filed as functional. Also noted: reference not given here.
For data set [3], the system named is NCI-H596. The data set is described as follows: Cytotoxic activity against non-small cell lung cancer cell line (NSCLC) H596 was determined by using MTT colorimetric assay. Format: functional, cell-based. Conditions: Homo sapiens.
The subject of data set [4] is NCI-H460. The data set is described as follows: Cytotoxic activity against non-small cell lung cancer cell line (NSCLC) H460 was determined by using MTT colorimetric assay. It is filed as functional, cell-based. To be noted: Homo sapiens.

These results are taken from ChEMBL document CHEMBL1131641, “Indolequinone antitumor agents: relationship between quinone structure and rate of metabolism by recombinant human NQO1” (Bioorg Med Chem Lett, 1998).

Structures are written as SMILES. Bounds are passed on as bounds.

Take `COC1=CC(=O)c2c(c(C=O)c(C)n2C)C1=O`: the Metabolism in data set [1] is 8.78 µM/min/mg. `COC1=CC(=O)c2c(c(COC(N)=O)c(C)n2C)C1=O`: the Selectivity ratio in data set [2] came to 0.3. Regarding `Cc1c(CO)c2c(n1C)C(=O)C=C(N1CCOCC1)C2=O`, the Metabolism in data set [1] came to 0.69 µM/min/mg. For `COC1=CC(=O)c2c(c(CO)c(C)n2C)C1=O`, the Selectivity ratio in data set [2] was 1. Besides, in data set [1], the Metabolism turned out to be 1.25 µM/min/mg. On to `COC1=CC(=O)c2c(cc(C)n2C)C1=O`, for which the Selectivity ratio in data set [2] stood at 1. For the same compound, in data set [1], the Metabolism turned out to be 5.31 µM/min/mg. In the case of `Cc1c(CO)c2c(n1C)C(=O)C=C(N(C)C)C2=O`, the Metabolism in data set [1] was 0.46 µM/min/mg. For the compound `CCOC(=O)c1c2c(n(C)c1C)C(=O)C=C(OC)C2=O`, the Metabolism in data set [1] came out at 14.3 µM/min/mg. As to `Cc1c(CO)c2c(n1C)C(=O)C=C(CN1CC1)C2=O`, the IC50 was over 25000 nM in data set [3] and 110 nM in data set [4]. Also, in data set [2], the Selectivity ratio was over 220. Besides, in data set [1], the Metabolism turned out to be 2.01 µM/min/mg. On to `Cc1c(COC(N)=O)c2c(n1C)C(=O)C=C(N1CC1)C2=O`, for which the Selectivity ratio in data set [2] is 1.6. On to `Cc1cc2c(n1C)C(=O)C=C(N1CC1)C2=O`, for which the Selectivity ratio in data set [2] was over 26. Also, the Metabolism in data set [1] stood at 11.6 µM/min/mg. For the compound `Cc1c(CO)c2c(n1C)C(=O)C=C(N1CC1)C2=O`, the Selectivity ratio in data set [2] is 510. Besides, the Metabolism in data set [1] was determined as 3.35 µM/min/mg. `Cc1c(CO)c2c(n1C)C(=O)C=C(N1CCC1)C2=O`: the Metabolism in data set [1] is 0.22 µM/min/mg. For the compound `COCC/N=C1\C=C(O)c2c(c(CO)c(C)n2C)C1=O`, the Metabolism in data set [1] stood at 0.1 µM/min/mg.

As for `C/N=C1\C=C(O)c2c(c(CO)c(C)n2C)C1=O`, in data set [1], the Metabolism is 0.49 µM/min/mg.

What is called IC50 is the point on the concentration scale where inhibition reaches its midpoint.
